Assays:
[1] = biological target: Tyrosine-protein kinase HCK (Homo sapiens, UniProt P08631)
[2] = biological target: Mitogen-activated protein kinase kinase kinase kinase 5 (Homo sapiens, UniProt Q9Y4K4)
Ephrin type-A receptor 8 = biological target: T1, Ephrin type-A receptor 8 (Homo sapiens, UniProt P29322)
T1 sequence (P29322 whole entry): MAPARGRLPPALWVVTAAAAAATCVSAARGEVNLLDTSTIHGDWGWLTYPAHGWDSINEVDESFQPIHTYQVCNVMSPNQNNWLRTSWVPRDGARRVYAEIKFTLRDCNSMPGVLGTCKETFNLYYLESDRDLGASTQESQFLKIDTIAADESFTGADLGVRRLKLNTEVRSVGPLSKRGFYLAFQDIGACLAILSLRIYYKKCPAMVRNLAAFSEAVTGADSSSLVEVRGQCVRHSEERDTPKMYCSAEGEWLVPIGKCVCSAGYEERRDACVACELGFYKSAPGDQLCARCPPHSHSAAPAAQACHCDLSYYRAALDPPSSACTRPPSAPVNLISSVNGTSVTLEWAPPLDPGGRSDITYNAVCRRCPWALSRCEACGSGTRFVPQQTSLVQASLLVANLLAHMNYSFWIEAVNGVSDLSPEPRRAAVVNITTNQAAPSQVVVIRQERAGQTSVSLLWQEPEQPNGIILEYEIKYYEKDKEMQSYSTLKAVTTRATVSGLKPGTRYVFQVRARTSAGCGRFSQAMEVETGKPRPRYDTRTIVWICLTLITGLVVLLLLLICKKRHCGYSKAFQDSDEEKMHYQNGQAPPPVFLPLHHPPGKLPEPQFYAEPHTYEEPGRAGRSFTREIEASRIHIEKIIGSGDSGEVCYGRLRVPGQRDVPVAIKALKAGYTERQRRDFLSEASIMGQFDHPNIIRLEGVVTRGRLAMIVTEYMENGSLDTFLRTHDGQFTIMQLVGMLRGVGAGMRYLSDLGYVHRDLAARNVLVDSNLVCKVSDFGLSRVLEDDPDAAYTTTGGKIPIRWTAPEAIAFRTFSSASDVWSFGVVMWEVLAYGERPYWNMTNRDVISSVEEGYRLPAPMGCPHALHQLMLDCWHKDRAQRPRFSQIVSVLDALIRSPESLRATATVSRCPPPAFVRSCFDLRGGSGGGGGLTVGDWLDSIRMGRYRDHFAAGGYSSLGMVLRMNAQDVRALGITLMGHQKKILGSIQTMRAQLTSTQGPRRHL

[3] = biological target: T2, Mitogen-activated protein kinase 12 (Homo sapiens, UniProt P53778)
T2 sequence (P53778 whole entry): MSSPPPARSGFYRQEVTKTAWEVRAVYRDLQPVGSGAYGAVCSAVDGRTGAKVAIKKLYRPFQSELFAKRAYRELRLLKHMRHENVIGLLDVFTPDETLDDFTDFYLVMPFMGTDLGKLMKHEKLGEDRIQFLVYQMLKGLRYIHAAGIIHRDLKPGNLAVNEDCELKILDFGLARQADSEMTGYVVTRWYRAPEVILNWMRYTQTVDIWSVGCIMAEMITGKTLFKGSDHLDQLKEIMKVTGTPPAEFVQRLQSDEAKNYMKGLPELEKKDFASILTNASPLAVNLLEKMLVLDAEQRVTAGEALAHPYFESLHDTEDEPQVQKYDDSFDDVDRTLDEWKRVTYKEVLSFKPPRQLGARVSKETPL

Aurora kinase C = biological target: T3, Aurora kinase C (Homo sapiens, UniProt Q9UQB9)
T3 sequence (Q9UQB9 whole entry): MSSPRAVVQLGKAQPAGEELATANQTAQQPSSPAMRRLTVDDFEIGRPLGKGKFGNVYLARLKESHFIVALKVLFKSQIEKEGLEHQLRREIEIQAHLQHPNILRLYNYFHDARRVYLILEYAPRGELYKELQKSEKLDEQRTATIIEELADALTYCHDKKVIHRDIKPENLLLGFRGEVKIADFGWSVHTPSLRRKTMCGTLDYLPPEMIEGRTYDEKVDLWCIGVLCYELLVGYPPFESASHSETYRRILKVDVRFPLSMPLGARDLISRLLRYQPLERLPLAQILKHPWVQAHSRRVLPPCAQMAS

[4] = biological target: T4, Serine/threonine-protein kinase Nek2 (Homo sapiens, UniProt P51955)
T4 sequence (P51955 whole entry): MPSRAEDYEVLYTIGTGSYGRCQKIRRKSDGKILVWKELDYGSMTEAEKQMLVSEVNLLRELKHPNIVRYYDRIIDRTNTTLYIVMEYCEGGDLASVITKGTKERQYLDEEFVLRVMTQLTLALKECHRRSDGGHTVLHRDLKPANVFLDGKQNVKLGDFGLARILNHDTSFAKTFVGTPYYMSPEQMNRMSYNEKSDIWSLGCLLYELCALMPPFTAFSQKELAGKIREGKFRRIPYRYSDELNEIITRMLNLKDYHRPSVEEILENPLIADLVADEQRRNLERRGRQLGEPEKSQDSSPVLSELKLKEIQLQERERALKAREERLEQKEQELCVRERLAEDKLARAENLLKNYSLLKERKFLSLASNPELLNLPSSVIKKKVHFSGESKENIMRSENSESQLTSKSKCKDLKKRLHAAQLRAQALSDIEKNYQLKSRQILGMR

[5] = biological target: Receptor tyrosine-protein kinase erbB-2 (Homo sapiens, UniProt P04626)
[6] = biological target: Tyrosine-protein kinase ABL1 (Homo sapiens, UniProt P00519, T315I)

Measured: Kd

Sequence of Receptor tyrosine-protein kinase erbB-2 (P04626 whole entry): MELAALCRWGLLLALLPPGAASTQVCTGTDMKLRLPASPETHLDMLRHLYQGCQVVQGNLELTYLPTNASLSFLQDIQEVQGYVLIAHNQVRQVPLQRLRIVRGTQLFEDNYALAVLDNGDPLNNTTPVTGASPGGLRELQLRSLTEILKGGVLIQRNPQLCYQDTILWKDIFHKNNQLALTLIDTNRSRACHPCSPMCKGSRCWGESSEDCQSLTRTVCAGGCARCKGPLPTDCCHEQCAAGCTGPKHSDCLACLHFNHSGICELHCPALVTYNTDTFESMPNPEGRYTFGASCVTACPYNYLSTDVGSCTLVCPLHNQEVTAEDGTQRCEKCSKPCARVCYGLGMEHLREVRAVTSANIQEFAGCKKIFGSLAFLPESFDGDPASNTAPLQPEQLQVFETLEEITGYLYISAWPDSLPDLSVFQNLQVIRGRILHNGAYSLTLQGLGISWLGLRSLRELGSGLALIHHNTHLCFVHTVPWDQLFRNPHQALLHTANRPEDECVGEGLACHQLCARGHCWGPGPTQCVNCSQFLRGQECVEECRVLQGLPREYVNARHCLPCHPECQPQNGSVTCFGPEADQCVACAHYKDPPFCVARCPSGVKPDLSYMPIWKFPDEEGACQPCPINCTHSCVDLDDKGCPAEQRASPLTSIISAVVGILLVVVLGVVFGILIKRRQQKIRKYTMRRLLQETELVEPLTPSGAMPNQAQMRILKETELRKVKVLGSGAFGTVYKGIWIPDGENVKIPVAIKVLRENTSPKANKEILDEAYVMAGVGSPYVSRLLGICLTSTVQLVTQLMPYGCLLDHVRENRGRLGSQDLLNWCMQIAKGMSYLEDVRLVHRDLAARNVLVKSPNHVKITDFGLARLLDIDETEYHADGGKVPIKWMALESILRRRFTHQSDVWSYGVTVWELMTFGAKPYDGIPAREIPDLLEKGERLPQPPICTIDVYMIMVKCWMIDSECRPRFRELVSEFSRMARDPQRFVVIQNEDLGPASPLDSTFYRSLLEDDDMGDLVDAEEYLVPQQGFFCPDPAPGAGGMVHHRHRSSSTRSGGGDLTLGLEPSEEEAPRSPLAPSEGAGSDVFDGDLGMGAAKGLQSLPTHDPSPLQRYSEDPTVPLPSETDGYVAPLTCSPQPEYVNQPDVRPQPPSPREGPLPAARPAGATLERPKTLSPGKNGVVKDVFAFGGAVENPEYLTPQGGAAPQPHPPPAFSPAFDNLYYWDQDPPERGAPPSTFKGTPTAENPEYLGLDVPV
Sequence of Mitogen-activated protein kinase kinase kinase kinase 5 (Q9Y4K4 whole entry): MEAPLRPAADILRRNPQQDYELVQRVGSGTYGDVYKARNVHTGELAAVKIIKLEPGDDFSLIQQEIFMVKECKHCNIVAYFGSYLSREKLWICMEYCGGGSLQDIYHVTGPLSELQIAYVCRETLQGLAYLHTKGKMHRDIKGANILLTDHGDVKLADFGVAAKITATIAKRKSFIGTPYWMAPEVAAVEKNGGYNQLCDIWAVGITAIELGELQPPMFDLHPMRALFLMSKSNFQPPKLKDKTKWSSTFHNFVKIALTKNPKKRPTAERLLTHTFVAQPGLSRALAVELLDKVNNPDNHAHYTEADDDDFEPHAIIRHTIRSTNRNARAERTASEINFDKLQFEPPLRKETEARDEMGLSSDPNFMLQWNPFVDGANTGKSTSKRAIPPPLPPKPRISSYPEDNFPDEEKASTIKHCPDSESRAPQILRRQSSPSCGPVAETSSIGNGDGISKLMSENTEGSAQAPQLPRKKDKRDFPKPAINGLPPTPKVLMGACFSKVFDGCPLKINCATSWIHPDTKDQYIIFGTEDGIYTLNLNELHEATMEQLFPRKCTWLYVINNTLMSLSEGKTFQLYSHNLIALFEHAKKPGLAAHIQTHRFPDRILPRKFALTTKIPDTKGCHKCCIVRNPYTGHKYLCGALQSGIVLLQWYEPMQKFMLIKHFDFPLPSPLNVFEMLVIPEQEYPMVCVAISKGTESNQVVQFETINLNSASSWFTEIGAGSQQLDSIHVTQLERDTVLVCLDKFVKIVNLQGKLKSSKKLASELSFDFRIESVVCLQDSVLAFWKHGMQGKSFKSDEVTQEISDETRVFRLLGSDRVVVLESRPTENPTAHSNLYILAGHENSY
Sequence of Tyrosine-protein kinase HCK (P08631 whole entry): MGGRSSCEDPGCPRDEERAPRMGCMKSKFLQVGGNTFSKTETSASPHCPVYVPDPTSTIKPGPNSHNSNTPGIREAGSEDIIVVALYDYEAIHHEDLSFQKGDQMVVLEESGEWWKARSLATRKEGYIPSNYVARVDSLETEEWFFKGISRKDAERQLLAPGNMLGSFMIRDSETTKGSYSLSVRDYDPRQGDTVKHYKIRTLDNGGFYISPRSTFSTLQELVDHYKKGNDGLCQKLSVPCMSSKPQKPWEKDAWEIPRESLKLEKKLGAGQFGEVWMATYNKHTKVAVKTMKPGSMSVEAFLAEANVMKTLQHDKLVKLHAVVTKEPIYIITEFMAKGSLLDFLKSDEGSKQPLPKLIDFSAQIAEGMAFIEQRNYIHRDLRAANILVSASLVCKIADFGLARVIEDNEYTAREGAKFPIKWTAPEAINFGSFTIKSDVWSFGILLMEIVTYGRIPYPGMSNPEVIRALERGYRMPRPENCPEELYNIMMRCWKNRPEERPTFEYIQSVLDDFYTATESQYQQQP

C#Cc1cccc(Nc2ncnc3cc(OCCOC)c(OCCOC)cc23)c1 [ERLOTINIB]
Not Active: [1] | [2] | Ephrin type-A receptor 8 | [3] | Aurora kinase C | [4]

Cc1ccc(NC(=O)c2ccc(CN3CCN(C)CC3)cc2)cc1Nc1nccc(-c2cccnc2)n1 [IMATINIB]
Not Active: [1] | [5] | [2] | [3] | Aurora kinase C | [4]

O=c1ncn2nc(Sc3ccc(F)cc3F)ccc2c1-c1c(Cl)cccc1Cl [NEFLAMAPIMOD]
Not Active: [5] | [2] | [6] | [3] | Aurora kinase C | [4]

CCOc1cc2ncc(C#N)c(Nc3ccc(F)c(Cl)c3)c2cc1NC(=O)/C=C/CN(C)C [PELITINIB]
Not Active: [3] | Aurora kinase C

Oc1ccc(-c2nc(-c3ccc(F)cc3)c(-c3ccncc3)[nH]2)cc1 [SB-202190]
Not Active: [1] | [5] | [2] | Ephrin type-A receptor 8 | [6] | Aurora kinase C | [4]

C[S+]([O-])c1ccc(-c2nc(-c3ccc(F)cc3)c(-c3ccncc3)[nH]2)cc1 (stereo not given) [SB-203580]
Not Active: [1] | [5] | [2] | Ephrin type-A receptor 8 | [6] | Aurora kinase C | [4]

CC[C@H](CO)Nc1nc(NCc2ccccc2)c2ncn(C(C)C)c2n1 [SELICICLIB]
Not Active: [1] | [5] | [2] | Ephrin type-A receptor 8 | [6] | [3] | Aurora kinase C | [4]

Oc1c2ccccc2c2c3c(cccc13)N=N2 [SP-600125]
Not Active: [1] | [5] | [2] | Ephrin type-A receptor 8 | [6] | [4]

COc1cc2c(N3CCN(C(=O)Nc4ccc(OC(C)C)cc4)CC3)ncnc2cc1OCCCN1CCCCC1 [TANDUTINIB]
Not Active: [1] | [5] | Ephrin type-A receptor 8 | [6] | [3] | Aurora kinase C | [4]

From ChEMBL document CHEMBL1144455, “A small molecule-kinase interaction map for clinical kinase inhibitors” (Nat Biotechnol, 2005)
